Laboratory results published in patent publication US11746111B2, “Siderophore conjugated pyrazolidinones, and analogues thereof” (YALE UNIVERSITY, priority 2018, dated 2023).
Where two headings read alike, the source gives them in different places.

How the values were obtained:
Format in all cases: cell-based
[1] = test system: E. coli clinical isolates; assay: Microdilution broth MIC, E. coli clinical isolates (Table 1); conditions: Escherichia coli
Description: (§1) Microdilution Broth Minimum Inhibitory Concentrations (MICs)
(§2) MICs were performed in triplicate in cation adjusted Mueller-Hinton (MH) broth 30 according to CLSI guidelines. Firstly, overnight cultures of E. coli and K. pneumoniae clinical isolates were inoculated into 5 ml MH broth to OD600=0.1 and grown to OD600=0.224 (approximately 1-2×10^8 CFU/ml). These cultures were diluted (3 μl+4997 μl MH) and 100 μl inoculated into each well of a 96-well plate containing 100 μl of serial dilutions of compound 26 (YU253434), ampicillin, ceftazidime, or imipenem. The plates were placed in a 37° C. incubator for 18-20 hours and wells checked for growth.

[2] = test system: K. pneumoniae clinical isolates; assay: Microdilution broth MIC, K. pneumoniae clinical isolates (Table 1); conditions: Klebsiella pneumoniae
Description: as §1, §2

Pseudomonas aeruginosa = assay: MIC versus Pseudomonas aeruginosa strains incl. Class B metallo beta lactamases (Table 3)
Excerpt: (§3) Tables 2 and 3 show MIC values of compound 26 (YU253434) and 42 YU253911 versus E. coli and P. Aeruginosa strains containing Class B metallo beta lactamases VIM and NDM compared with Meropenem as a standard.

E. coli = assay: MIC versus E. coli strains incl. Class B metallo beta lactamases (Table 2); conditions: Escherichia coli
Excerpt: as §3

[3] = E. coli 35218, TEM-1, read-out: MIC
[4] = E. coli LC12, CTX-M-1 grp(15), read-out: MIC
[5] = E. coli LC15, CTX-M-9 group, CTX-M-1 grp(15)
[6] = E. coli LC38, CTX-M-1 grp(15), PB AmpC (ACT/MIR)
[7] = E. coli LC41, TEM (238S), PB AmpC (ACT/MIR), CTX-M-1 grp(15)
[8] = E. coli LC77, TEM, KPC, read-out: MIC
[9] = E. coli LC81, SHV (238S + 240K), read-out: MIC
[10] = E. coli LC91, CTX-M-1 grp(15), CMY (group II), read-out: MIC
[11] = E. coli LC98, CMY (group II), read-out: MIC
[12] = E. coli LC109, CTX-M-9 group, CMY (group II)
[13] = E. coli LC111, TEM (164S), read-out: MIC
[14] = E. coli LC136, SHV (WT + 238S), read-out: MIC
[15] = K. pneumoniae KB390 Quale, TEM-30, TEM-1, KPC-2, SHV-12, read-out: MIC
[16] = K. pneumoniae LC56, CTX-M-1 grp(15), read-out: MIC
[17] = K. pneumoniae LC102, SHV-1 (WT + 238S), read-out: MIC
[18] = K. pneumoniae Rush23, CTX-M-9 group, read-out: MIC
[19] = K. pneumoniae VA-184, KPC-2, SHV-11, SHV-12, read-out: MIC
[20] = K. pneumoniae VA-267, KPC-3, TEM-1, SHV-11, SHV-12, read-out: MIC
[21] = K. pneumoniae VA-357, KPC-2, SHV-11, read-out: MIC
[22] = K. pneumoniae VA-368, KPC-2, TEM-1, SHV-5, SHV-68, read-out: MIC
[23] = K. pneumoniae VA-384, KPC-2, TEM-1, SHV-11, SHV-12, SHV-14, read-out: MIC
[24] = K. pneumoniae VA-391, KPC-3, TEM-1, SHV-11, SHV-12, SHV-77, read-out: MIC
[25] = K. pneumoniae VA-398, KPC-3, TEM-1, SHV-11, SHV-12, SHV-27, read-out: MIC
[26] = K. pneumoniae VA-400, KPC-2, TEM-1, SHV-11, SHV-12, read-out: MIC
[27] = K. pneumoniae VA-406, KPC-2, TEM-1, SHV-11, SHV-12, read-out: MIC
[28] = K. pneumoniae VA-410, KPC-3, TEM-1, SHV-11, read-out: MIC
[29] = BAA202, E. coli BAA-202, SHV-1, read-out: MIC
[30] = E. coli Rush24, CMY (group II), read-out: MIC
[31] = K. pneumoniae 7000063, β-lactamase SHV-18, read-out: MIC
[32] = K. pneumoniae LC40, CTX-M-1 grp(15), TEM (164S), read-out: MIC
[33] = K. pneumoniae LC121, SHV-1 (WT + 238S + 240K), read-out: MIC
[34] = ATCC27853, P. aeruginosa isolate ATCC 27853, CLSI control
[35] = P. aeruginosa isolate AR-229, OXA-50
[36] = P. aeruginosa isolate AR-230, VIM-2
[37] = P. aeruginosa isolate AR-231, KPC-5
[38] = P. aeruginosa isolate AR-232, OXA-50
[39] = P. aeruginosa isolate AR-245, VIM
[40] = P. aeruginosa isolate AR-249, VIM
[41] = P. aeruginosa isolate AR-254, VIM
[42] = P. aeruginosa isolate AR-270, OXA-50
[43] = P. aeruginosa isolate J4242, UNC-D
[44] = ATCC25822, E. coli isolate ATCC 25822, CLSI costrol
[45] = E. coli isolate AK-114, KPC-3, TEM-18
[46] = E. coli isolate AR-11, CTX-M-15, OxA-1
[47] = E. coli isolate J4245, Michigan

Measured: MIC

CC1(C)S[C@@H]2[C@H](NC(=O)[C@H](N)c3ccccc3)C(=O)N2[C@H]1C(=O)O [Ampicillin]
> 2050 µg/mL: [1]; BAA202, E. coli BAA-202, SHV-1 | [1]; E. coli LC4, TEM, SHV-12 | [1]; E. coli Rush24, CMY (group II) | [2]; [15] | [2]; [16] | [2]; [17] | [2]; [18] | [2]; [19] | [2]; [20] | [2]; [21] | [2]; [22] | [2]; [23] | [2]; [24] | [2]; [25] | [2]; [26] | [2]; [27] | [2]; [28]
512 µg/mL: [1]; E. coli LC33, CTX-M-9 group | [1]; [6] | [1]; [7] | [1]; [14] | [2]; K. pneumoniae LC40, CTX-M-1 grp(15), TEM (164S)
1020 µg/mL: [1]; [5] | [1]; [12] | [1]; [13] | [2]; K. pneumoniae 7000063, β-lactamase SHV-18 | [2]; K. pneumoniae LC121, SHV-1 (WT + 238S + 240K)
256 µg/mL: [1]; [3]
2050 µg/mL: [1]; [4] | [1]; [8] | [1]; [9] | [1]; [10] | [1]; [11]

CC(C)(O/N=C(\C(=O)N[C@@H]1C(=O)N2C(C(=O)[O-])=C(C[n+]3ccccc3)CS[C@H]12)c1csc(N)n1)C(=O)O [Ceftazidime]
4 µg/mL: [1]; E. coli LC33, CTX-M-9 group, read-out: MIC | [2]; [17]
128 µg/mL: [1]; [9] | [2]; K. pneumoniae VA-357, KPC-2, SHV-11 | [2]; K. pneumoniae VA-410, KPC-3, TEM-1, SHV-11
2 µg/mL: [1]; [13] | [2]; [18]
> 1020 µg/mL: [1]; [4]
< 1 µg/mL: [1]; [3] | [1]; E. coli LC15, CTX-M-9 group, CTX-M-1 grp(15), read-out: MIC | [1]; E. coli LC38, CTX-M-1 grp(15), PB AmpC (ACT/MIR), read-out: MIC | [1]; E. coli LC41, TEM (238S), PB AmpC (ACT/MIR), CTX-M-1 grp(15), read-out: MIC | [1]; [14] | [2]; [32]
32 µg/mL: [1]; E. coli LC109, CTX-M-9 group, CMY (group II), read-out: MIC | [2]; [25]
16 µg/mL: [1]; [29] | [1]; [8] | [1]; [10] | [2]; [31] | [2]; [16] | [2]; [33] | [2]; [22]
256 µg/mL: [1]; E. coli LC4, TEM, SHV-12 | [1]; [11] | [1]; [30] | [2]; K. pneumoniae VA-184, KPC-2, SHV-11, SHV-12 | [2]; K. pneumoniae VA-384, KPC-2, TEM-1, SHV-11, SHV-12, SHV-14 | [2]; K. pneumoniae VA-391, KPC-3, TEM-1, SHV-11, SHV-12, SHV-77 | [2]; K. pneumoniae VA-400, KPC-2, TEM-1, SHV-11, SHV-12 | [2]; K. pneumoniae VA-406, KPC-2, TEM-1, SHV-11, SHV-12
512 µg/mL: [2]; K. pneumoniae KB390 Quale, TEM-30, TEM-1, KPC-2, SHV-12 | [2]; K. pneumoniae VA-267, KPC-3, TEM-1, SHV-11, SHV-12

CC(C)(O/N=C(\C(=O)N[C@H]1CN2CC(C(=O)NCCN3C(=O)c4cc(O)c(O)cc4C3=O)=C(C(=O)O)N2C1=O)c1nc(N)sc1Cl)C(=O)O [Compound 42, (S,Z)-6-(2-(2-amino-5-chlorothiazol-4-yl)-2-(((2-carboxypropan-2-yl)oxy)imino)acetamido)-2-((2-(5,6-dihydroxy-1,3-dioxoisoindolin-2-yl)ethyl)carbamoyl)-5-oxo-6,7-dihydro-1H,5H-pyrazolo[1,2-a]pyrazole-3-carboxylic acid]
2 µg/mL: Pseudomonas aeruginosa; [41] | E. coli; [45]
0.5 µg/mL: Pseudomonas aeruginosa; [34] | Pseudomonas aeruginosa; [35] | Pseudomonas aeruginosa; [38] | Pseudomonas aeruginosa; [39] | Pseudomonas aeruginosa; [43]
0.25 µg/mL: Pseudomonas aeruginosa; [42]
4 µg/mL: E. coli; [46]
> 64 µg/mL: E. coli; [44] | E. coli; E. coli isolate AA-118, NDM | E. coli; E. coli isolate AA-119, NDM | E. coli; E. coli isolate AA-128, NDM | E. coli; E. coli isolate AR-1, KPC-3 | E. coli; E. coli isolate AR-137, NDM-6 | E. coli; E. coli isolate AR-145, NDM | E. coli; E. coli isolate J4244, MN | E. coli; [47]
1 µg/mL: Pseudomonas aeruginosa; [36] | Pseudomonas aeruginosa; [37] | Pseudomonas aeruginosa; [40] | Pseudomonas aeruginosa; P. aeruginosa isolate AR-252

C[C@@H](O)[C@H]1C(=O)N2C(C(=O)O)=C(SCCN=CN)C[C@H]12 [Imipenem]
> 128 µg/mL: [2]; [27]
128 µg/mL: [1]; E. coli LC12, CTX-M-1 grp(15)
32 µg/mL: [2]; [23]
1 µg/mL: [2]; [22] | [2]; [25]
< 0.125 µg/mL: [1]; E. coli 35218, TEM-1 | [1]; E. coli LC4, TEM, SHV-12 | [1]; [5] | [1]; E. coli LC33, CTX-M-9 group | [1]; [6] | [1]; [7] | [1]; [9] | [1]; E. coli LC91, CTX-M-1 grp(15), CMY (group II) | [1]; [11] | [1]; [12] | [1]; [13] | [1]; [14] | [2]; [31] | [2]; [17] | [2]; [33] | [2]; [18]
2 µg/mL: [1]; [8] | [2]; [28]
0.5 µg/mL: [2]; [16]
8 µg/mL: [2]; [19] | [2]; [21]
0.25 µg/mL: [1]; [29] | [1]; [30] | [2]; [32]
4 µg/mL: [2]; [15] | [2]; [20] | [2]; [24] | [2]; [26]

C[C@@H](O)[C@H]1C(=O)N2C(C(=O)O)=C(S[C@@H]3CN[C@H](C(=O)N(C)C)C3)[C@H](C)[C@H]12 [Meropenem]
≤ 0.125 µg/mL: E. coli; [44] | E. coli; [46] | E. coli; E. coli isolate J4244, MN | E. coli; [47]
1 µg/mL: Pseudomonas aeruginosa; [34]
64 µg/mL: Pseudomonas aeruginosa; [35] | Pseudomonas aeruginosa; P. aeruginosa isolate AR-252 | E. coli; E. coli isolate AA-119, NDM | E. coli; E. coli isolate AA-128, NDM
4 µg/mL: Pseudomonas aeruginosa; [42] | E. coli; [45] | E. coli; E. coli isolate AR-1, KPC-3
> 64 µg/mL: Pseudomonas aeruginosa; [36] | Pseudomonas aeruginosa; [37] | Pseudomonas aeruginosa; [40] | Pseudomonas aeruginosa; [41] | E. coli; E. coli isolate AA-118, NDM | E. coli; E. coli isolate AR-137, NDM-6 | E. coli; E. coli isolate AR-145, NDM
32 µg/mL: Pseudomonas aeruginosa; [39]
16 µg/mL: Pseudomonas aeruginosa; [43]
8 µg/mL: Pseudomonas aeruginosa; [38]
